One assay deals with T1, FLT3 I836S (Homo sapiens, UniProt P36888, I836S).
T1 construct: expressed in transfected cells; host or cells: BaF3
T1 sequence (P36888 27-993 I836S): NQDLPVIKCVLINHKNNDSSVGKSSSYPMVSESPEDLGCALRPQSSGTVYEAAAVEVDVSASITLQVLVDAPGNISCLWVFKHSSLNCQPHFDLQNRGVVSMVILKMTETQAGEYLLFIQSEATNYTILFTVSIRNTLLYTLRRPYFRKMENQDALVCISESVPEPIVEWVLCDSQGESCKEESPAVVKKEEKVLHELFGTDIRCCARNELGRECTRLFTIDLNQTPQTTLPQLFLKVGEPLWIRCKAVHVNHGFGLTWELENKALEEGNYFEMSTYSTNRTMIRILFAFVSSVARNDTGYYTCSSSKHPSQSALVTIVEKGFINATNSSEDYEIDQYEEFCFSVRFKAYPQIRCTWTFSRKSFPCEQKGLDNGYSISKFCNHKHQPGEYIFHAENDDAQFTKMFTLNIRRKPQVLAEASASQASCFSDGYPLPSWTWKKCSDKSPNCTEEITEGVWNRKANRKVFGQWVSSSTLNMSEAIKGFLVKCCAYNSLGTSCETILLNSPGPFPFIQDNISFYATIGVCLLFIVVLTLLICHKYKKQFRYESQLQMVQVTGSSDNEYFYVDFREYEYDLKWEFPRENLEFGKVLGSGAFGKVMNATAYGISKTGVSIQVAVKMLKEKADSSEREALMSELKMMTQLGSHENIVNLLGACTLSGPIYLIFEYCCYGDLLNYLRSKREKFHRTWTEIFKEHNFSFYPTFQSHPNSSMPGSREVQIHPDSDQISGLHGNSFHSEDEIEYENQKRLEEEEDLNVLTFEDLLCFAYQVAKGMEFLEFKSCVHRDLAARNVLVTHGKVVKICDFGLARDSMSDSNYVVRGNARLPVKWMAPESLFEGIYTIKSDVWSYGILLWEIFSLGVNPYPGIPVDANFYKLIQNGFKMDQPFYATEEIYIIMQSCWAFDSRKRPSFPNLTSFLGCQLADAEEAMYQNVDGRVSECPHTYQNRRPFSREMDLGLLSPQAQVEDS
As to the kind of experiment: FLT3 autophosphorylation, immunoprecipitation/Western blot, I836S. Type of assay: cell-based. As to conditions: I836S mutant, concentrations of 200 nM, 1 h. The procedure: (§1) Activated FLT3 expression was measured by performing immunoprecipitation, SDS-PAGE and Western blotting as previously described. Specifically, 10^7 cells were washed in medium and treated with inhibitor for 1 h followed by stimulation with 25 ng/ml of FLT3 ligand for 15 minutes where indicated. Cells were washed twice with ice-cold PBS and lysed in 300 µl of NP-40 lysis buffer (150 mM NaCl, 20 mM TrisHCl (pH7.4), 10% glycerol, 1% NP-40, 10 mM EDTA, 100 mM NaF) with 2 mM Na3VO4 and protease inhibitors (Complete Tablets, Roche, Mannheim, Germany) at 4°C for 30 m. Cell lysate was harvested by centrifugation at 13,000 × g for 30 m at 4°C. FLT3 S-18 antibody was incubated with 500 µg lysate overnight at 4°C followed by immunoprecipitation with protein A-agarose beads for 2 h. Beads were washed once in Tris buffered saline with 1% Tween-20 (TBST) and twice in TBS. Samples were boiled in sodium dodecyl sulfate (SDS) sample buffer prior to separating in a 8% SDS-polyacrylamide gel (SDS-PAGE). Proteins were transferred to a polyvinyl diflouride (PVDF) membrane (Millipore, Bedford, MA, USA) and detected by 4G10 phosphotyrosine antibody and anti-FLT3 S-18 antibody. FLT3 was visualized using the Odyssey Infra Red Imaging System from Li-Cor (Lincoln, NE, USA) using AlexaFluor 680 goat anti-mouse and AlexaFluor 800 goat anti-rabbit antibodies. […]
(In general: Immunoblotting shows a protein as a band on a membrane.)

The target in the next assay is T2, FLT3 I836T (Homo sapiens, UniProt P36888, I836T).
T2 construct: expressed in transfected cells; host or cells: BaF3
T2 sequence (P36888 27-993 I836T): T1 sequence (P36888 27-993 I836S) with S810T
As to the kind of experiment: FLT3 autophosphorylation, immunoprecipitation/Western blot, I836T. The format is cell-based. The settings on record: I836T mutant, concentrations of 200 nM, 1 h. The procedure: as §1

Residue numbers refer to the chain shown, from its start.

As to `Cc1ccc(C(=O)Nc2ccc(CN3CCN(C)CC3)c(C(F)(F)F)c2)cc1C#Cc1cnc2cccnn12` [Ponatinib], the “Inhibition of FLT3 phosphorylation” value at FLT3 I836S and at FLT3 I836T was “significant autophosphorylation still observable” in each case.

Regarding `CC1(COc2ccc3c(c2)ncn3-c2ccc3cccc(N4CCC(N)CC4)c3n2)COC1` [Crenolanib], the “Inhibition of FLT3 phosphorylation” value on FLT3 I836S and on FLT3 I836T was “significant autophosphorylation still observable” each time.

Values taken from publication PMC5355235, “FLT3 activating mutations display differential sensitivity to multiple tyrosine kinase inhibitors” (Oncotarget, 2017).
